Test results as given in publication PMC8056384 (ACS Chemical Biology, 2021).
Several values for one entry are separate records, joined by “and”; a condition that tells them apart may be missing. Equal values may be shown once.

Key:
hGALK1 [1] = target: T1, hGALK1 (Homo sapiens, UniProt P51570, E253A/K252A); assay: Amplex Red fluorescence-based hGALK1 activity assay (coupled with galactose oxidase); assay type: biochemical; set-up: Vmaxapp, substrate ATP, with ligand (+) / Kmapp, substrate ATP, with ligand (+): unit not given here; conditions: for Kmapp, substrate ATP, with ligand (+) / Vmaxapp, substrate ATP, with ligand (+): 50 µM galactose, maximum tested concentration: 1 mM T1, 15 mM fragment 3, 2 mM 11–13; for mode of inhibition with respect to ATP: 50 μM galactose, 0–250 μM ATP, best-fit model in GraphPad Prism; for inhibition at 2000 µM: 2 mM compound; for Amplex Red LLEAT: calculated cumulatively over N1 and N2
T1 construct: A hGALK1 construct, encoding full-length protein harboring the surface entropy[41] mutations K252A:E253A; His6 (N); made in house; host or cells: E. coli BL21(DE3)
T1 sequence (P51570 whole entry K252A/E253A, the tested form may be a part): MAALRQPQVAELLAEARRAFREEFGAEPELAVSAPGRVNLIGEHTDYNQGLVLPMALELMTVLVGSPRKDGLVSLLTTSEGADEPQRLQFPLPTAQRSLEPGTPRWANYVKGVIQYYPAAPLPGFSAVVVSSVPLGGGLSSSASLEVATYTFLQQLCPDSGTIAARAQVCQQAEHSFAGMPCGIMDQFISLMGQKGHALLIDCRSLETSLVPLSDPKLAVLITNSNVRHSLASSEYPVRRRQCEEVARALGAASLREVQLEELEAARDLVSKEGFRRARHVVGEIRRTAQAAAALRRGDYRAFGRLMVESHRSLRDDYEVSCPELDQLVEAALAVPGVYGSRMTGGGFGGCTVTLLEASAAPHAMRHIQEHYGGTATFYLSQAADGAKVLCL
Text: Consequently, to confirm the mode of inhibition of the spiro-benzoxazole inhibitors with respect to ATP, we adopted the Amplex Red fluorescence-based assay[33],[34] by coupling the hGALK1 reaction with D. dendroides galactose oxidase (GAO; EC 1.1.3.9) to measure the level of galactose remaining after being depleted as a substrate for hGALK1. In this method, hydrogen peroxide generated by the oxidation of galactose by GAO is used by horseradish peroxidase to convert the nonfluorescent substrate Amplex Red into its highly fluorescent product resorufin; therefore, the resultant fluorescent signal is inversely proportional to hGALK1 enzyme activity. We optimized several parameters of this assay to allow measurement of hGALK1 activity for the first time (Figure S3; Supplementary Results).
The Amplex Red assay reagent contained horseradish peroxidase (EC 1.11.1.7, 0.2 U/mL), its substrate Amplex Red (10-acetyl-3,7-dihydroxyphenoxazine, 100 μM), and galactose oxidase (EC 1.1.3.9, 4 U/mL). The assay buffer used was the same as in the Kinase-Glo assay. […] Amplex Red reagent was added at a 1:1 volume to the hGALK1 reaction after 1-h incubation at RT. Fluorescence emission was measured at 585 nm, with excitation at 570 nm, after a further incubation period of 40 minutes, using a Pherastar FSX plate reader with a FI 540 590 optics module. Reactions were performed in technical triplicates for two biological replicates, and data were plotted and fitted as described for the Kinase-Glo assay except that the reaction rate, defined as total galactose consumed over the 1-h hGALK1 reaction, was determined using the following equation, where Fluorreaction = mean value of measured fluorescence of each reaction and Fluor50 = measured fluorescence with no galactose (i.e., fluorescence of 50 μM galactose): [drawing 2]

hGALK1 [2] = target: T1, hGALK1; assay: Kinase-Glo luminescent hGALK1 activity assay; assay type: biochemical; set-up: Vmaxapp, substrate galactose, with ligand (+) / Kmapp, substrate galactose, with ligand (+): unit not given here; conditions: for Kmapp, substrate galactose, with ligand (+) / Vmaxapp, substrate galactose, with ligand (+): 35 µM ATP, maximum tested concentration: 1 mM T1, 15 mM fragment 3, 2 mM 11–13; for mode of inhibition with respect to galactose: 0–250 μM galactose, best-fit model in GraphPad Prism; for inhibition at 2000 µM: 2 mM compound; for Kinase-Glo LLEAT: calculated cumulatively over N1 and N2
Experimental: hGALK1 activity in vitro was determined using the Kinase-Glo luminescent kinase assay (Promega), according to the manufacturer’s protocol. […] Following a 1-h RT incubation, 10 μL of Kinase-Glo Plus detection reagent was added (final assay volume: 20 μL/well), and after a further 20 minutes RT incubation, luminescence was detected using a Pherastar FSX plate reader (BMG Labtech) containing a luminescence optics module. […] All reactions were performed in technical triplicates for two different preparations of hGALK1.
Data were plotted using GraphPad Prism software; curve fitting was performed with a nonlinear least-squares regression fit to the mixed, competitive, noncompetitive, and uncompetitive inhibition models from the GraphPad Prism enzyme kinetics–inhibition equations and the best fit selected by comparison of Akaike’s Information Criterion (AICc) probability scores and extra sum-of-squares F test P values calculated by the software.

hGALK1 [3] = target: T1, hGALK1; assay: Surface plasmon resonance (SPR) binding assay; conditions: hGALK1 immobilized on CM5 chip, analyte 0.195–200 μM, n = 1
Experimental: Purified hGALK1 (30 μg/mL), diluted in acetate buffer at pH 5, was attached via covalent coupling to a density of 13000 RU on a CM5 chip. The assay buffer was 50 mM sodium phosphate, pH 7.5, 200 mM NaCl, 0.5 mM TCEP, 5% DMSO, and 0.05% TWEEN20. A serial dilution (11 concentrations) was prepared in the above buffer for each analyte (3, 11–13) by 1:1 dilution from 200 μM to 0.195 μM, and the subsequent solutions were passed over the chip at a flow rate of 30 μL/min. Data are from an n = 1 experiment.

hGALK2 = target: T2, hGALK2 (Homo sapiens, UniProt Q01415); assay: Kinase-Glo hGALK2 activity assay; assay type: biochemical; conditions: 1 mM compound
T2 construct: Constructs encoding full-length hGALK2 (Met1-Ala458) and hMVK (Met1-Leu396); His6-Strep-Strep tag followed by TEV protease cleavage site (N); made in house; host or cells: E. coli BL21(DE3)
T2 sequence (Q01415 1-458): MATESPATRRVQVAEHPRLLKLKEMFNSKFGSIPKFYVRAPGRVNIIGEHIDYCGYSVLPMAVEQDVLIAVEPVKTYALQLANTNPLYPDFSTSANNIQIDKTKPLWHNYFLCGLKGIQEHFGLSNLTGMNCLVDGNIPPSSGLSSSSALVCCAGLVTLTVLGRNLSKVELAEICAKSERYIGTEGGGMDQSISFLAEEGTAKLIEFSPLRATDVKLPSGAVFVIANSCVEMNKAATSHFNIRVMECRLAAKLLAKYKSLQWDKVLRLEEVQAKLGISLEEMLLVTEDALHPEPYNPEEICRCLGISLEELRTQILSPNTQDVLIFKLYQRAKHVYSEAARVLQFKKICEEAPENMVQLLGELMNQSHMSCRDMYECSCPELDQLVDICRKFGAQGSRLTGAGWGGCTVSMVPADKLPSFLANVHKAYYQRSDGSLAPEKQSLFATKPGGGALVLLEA
Experimental: (§1) hGALK1 activity in vitro was determined using the Kinase-Glo luminescent kinase assay (Promega), according to the manufacturer’s protocol. […] Similarly, hGALK2 activity and inhibition was measured with reactions containing 50 nM hGALK2, 100 μM N-acetylgalactosamine, and 35 μM ATP in the above-described buffer and hMVK activity and inhibition was measured with reactions containing 250 nM hMVK, 100 μM mevalonate, and 35 μM ATP in the above-described buffer. Following a 1-h RT incubation, 10 μL of Kinase-Glo Plus detection reagent was added (final assay volume: 20 μL/well), and after a further 20 minutes RT incubation, luminescence was detected using a Pherastar FSX plate reader (BMG Labtech) containing a luminescence optics module. To determine the inhibition mode with respect to galactose, 10 nM hGALK1 and 35 μM ATP in an assay buffer was added to an array of six fragment (0–15 mM) or 12 compound (0–2 mM) concentrations against six galactose concentrations (0–250 μM), with a final reaction volume of 10 μL/well dispensed into 384-well assay plates (Greiner), and measured as described above. All reactions were performed in technical triplicates for two different preparations of hGALK1. Reaction rate, defined as total ATP consumed over the 1-h hGALK1 reaction, was determined using the following equation, where Lumreaction = mean value of measured luminescence of each reaction and Lum35 = measured luminescence with no galactose (i.e., luminescence of 35 μM ATP): [drawing 1]

hMVK = target: T3, hMVK (Homo sapiens, UniProt Q03426); assay: Kinase-Glo hMVK activity assay; assay type: biochemical; conditions: 1 mM compound
T3 construct: Constructs encoding full-length hGALK2 (Met1-Ala458) and hMVK (Met1-Leu396); His6-Strep-Strep tag followed by TEV protease cleavage site (N); made in house; host or cells: E. coli BL21(DE3)
T3 sequence (Q03426 whole entry): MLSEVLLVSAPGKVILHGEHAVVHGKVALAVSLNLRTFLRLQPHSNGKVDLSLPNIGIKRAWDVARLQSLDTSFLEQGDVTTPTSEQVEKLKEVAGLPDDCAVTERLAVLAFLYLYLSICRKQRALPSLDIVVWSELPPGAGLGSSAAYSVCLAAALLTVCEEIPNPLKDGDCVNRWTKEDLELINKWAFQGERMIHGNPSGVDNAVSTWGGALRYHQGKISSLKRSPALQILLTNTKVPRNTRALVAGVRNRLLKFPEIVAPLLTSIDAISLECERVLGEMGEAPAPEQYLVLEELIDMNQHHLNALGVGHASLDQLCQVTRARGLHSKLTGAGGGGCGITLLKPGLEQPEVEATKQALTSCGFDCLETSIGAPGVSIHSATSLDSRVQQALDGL
Experimental: as §1

[4] = biological replicate N1, read-out: Amplex Red N1 IC50
[5] = biological replicate N2, read-out: Amplex Red N2 IC50
[6] = biological replicate N1, read-out: Kinase-Glo N1 IC50
[7] = biological replicate N2, read-out: Kinase-Glo N2 IC50
[8] = range over Kinase-Glo and Amplex Red assays
[9] = range over Kinase-Glo and Amplex Red assays, two biological replicates, read-out: IC50 values, range
[10] = concentration achieving 50% inhibition, IC50 not determinable, lower potency

Kmapp, substrate ATP, with ligand (+) (hGALK1 [1]) | Vmaxapp, substrate ATP, with ligand (+) (hGALK1 [1]) | Kmapp, substrate galactose, with ligand (+) (hGALK1 [2]) | Vmaxapp, substrate galactose, with ligand (+) (hGALK1 [2]) | mode of inhibition with respect to ATP (hGALK1 [1]) | mode of inhibition with respect to galactose (hGALK1 [2]; 35 μM ATP) | Kd (hGALK1 [3]) | inhibition at 2000 µM (hGALK1 [1]) [%] | IC50 (hGALK1 [1]; [4]) [µM] | IC50 (hGALK1 [1]; [5]) [µM] | Amplex Red LLEAT (hGALK1 [1]) [kcal/mol] | inhibition at 1000 µM (hGALK2) [%] | inhibition at 2000 µM (hGALK1 [2]) [%] | IC50 (hGALK1 [2]; [6]) [µM] | IC50 (hGALK1 [2]; [7]) [µM] | Kinase-Glo LLEAT (hGALK1 [2]) [kcal/mol] | LLEAT (Astex ligand lipophilicity efficiency score), range (hGALK1 [2]; [8]) [kcal/mol] | IC50 (hGALK1 [2]; [9]) [µM] | inhibition at 1000 µM (hMVK) [%] | Compound | also measured
63.5 ± 2.6 | 27.9 ± 1.5 | 32.9 ± 1.0 | 4.1 ± 0.5 |  |  |  |  |  |  |  |  |  |  |  |  |  |  |  | O=C1CCCC2=C1C1(CCCC1)N=C(Nc1nc3ccccc3o1)N2 [T1, 2′-(benzo[d]oxazol-2-ylamino)-7′,8′-dihydro-1′H-spiro[cyclopentane-1,4′-quinazolin]-5′(6′H)-one, reference compound] | 
 |  |  |  | competitive | non-competitive |  |  |  |  |  |  |  |  |  |  |  |  |  | O=C1CCCC2=C1C1(CCCCC1)N=C(Nc1nc3ccccc3o1)N2 [T2, 2′-(benzo[d]oxazol-2-ylamino)-7′,8′-dihydro-1′H-spiro[cyclohexane-1,4′-quinazolin]-5′(6′H)-one, reference compound] | IC50 (hGALK1 [2]; 10 nM hGALK1, 100 μM galactose, 35 μM ATP, read-out: IC50): 17 µM
36.5 ± 5.8 | 11.1 ± 0.9 | 36.5 ± 2.1 | 3.7 ± 0.4 | noncompetitive | noncompetitive | ~100 µM and 89 µM | > 50 | 31 | 65 | 0.22 | < 10 | > 50 | 209 | 116 | 0.19 | 0.19 to 0.22 | 31 to 209 | < 10 | O=C(CNc1cnc2cc(Cl)c(Cl)cc2n1)NC1CC1 [compound 11] | 
40.4 ± 4.7 | 11.8 ± 0.2 | 41.5 ± 12.4 | 9.4 ± 1.1 | noncompetitive | noncompetitive | ~100 µM and 97 µM | > 50 | 45 | 25 | 0.27 | < 10 | > 50 | 198 | 96 | 0.23 | 0.23 to 0.27 | 25 to 198 | < 10 | COCCNC(=O)CNc1cnc2cc(Cl)c(Cl)cc2n1 [compound 12] | 
46.5 ± 4.5 | 14.7 ± 3.0 | 143.6 ± 7.6 | 4.4 ± 0.4 | noncompetitive | mixed | ~200 µM and ~203 µM | > 50 |  |  |  | < 10 | > 50 |  |  |  |  |  | < 10 | COc1ccc(Cl)cc1C(=O)NC1CCN(c2ncccn2)CC1 [compound 13] | IC50 (hGALK1 [1]; [10]): ~1000 µM; IC50 (hGALK1 [2]; [10]): ~1000 µM
 |  |  |  |  |  |  |  |  |  |  |  |  |  |  |  |  |  |  | CCOC(=O)C1CCN(c2cnccn2)CC1 [fragment 1] | change in hGALK1 activity, strictly standardized mean difference (SSMD) (hGALK1 [2]; 5 mM fragment): < 0.5
